ChEMBL document CHEMBL1201862, “PubChem BioAssay data set” (2004)
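1) Cells in 96-well plates. 2) Compound, 48 h, 5 concentrations. 3) Linear interpolation between surrounding doses. 4) Unreached endpoint = highest concentration. GI50 marks 50% less growth.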 Activity calls are given as the source filed them. Rule as the data show it: active = GI50 up to about 1.1 µM and inactive = higher.

What was measured:
Test in all cases: NCI-60 cell line screen, 48 h
[1] = tested on: A549
[2] = tested on: ACHN
[3] = tested on: EKVX
[4] = tested on: HL-60
[5] = tested on: HOP-62
[6] = tested on: LOX IMVI
[7] = tested on: M14
[8] = tested on: Malme-3M
[9] = tested on: NCI-H460
[10] = tested on: OVCAR-4
[11] = tested on: OVCAR-5
[12] = tested on: SF-268
[13] = tested on: SF-295
[14] = tested on: SK-MEL-28
[15] = tested on: SK-MEL-2
[16] = tested on: SW-620
[17] = tested on: TK-10
[18] = tested on: UACC-62

Measured: GI50

CCCCCCc1cc(C(=O)Nc2cccc(C(F)(F)F)c2)nc(N)n1
inactive: [1] > 100 µM | [2] > 100 µM | [3] > 100 µM | [4] > 100 µM | [5] 63.4 µM | [6] > 100 µM | [7] > 100 µM | [8] > 100 µM | [9] > 100 µM | [10] > 100 µM | [11] > 100 µM | [12] > 100 µM | [13] > 100 µM | [14] > 100 µM | [15] > 100 µM | [16] > 100 µM | [17] > 100 µM | [18] > 100 µM

C/C(=N\O)c1sc(-n2nc(-c3ccccc3)cc2-c2ccccc2)nc1C
inactive: [1] 14.2 µM | [2] 11.9 µM | [3] 6.35 µM | [4] 14 µM | [5] 12 µM | [6] 12.4 µM | [7] 13.2 µM | [8] 16.9 µM | [9] 15.6 µM | [10] > 10 µM | [11] > 10 µM | [12] 12.1 µM | [13] 14 µM | [14] 12.9 µM | [15] 28.3 µM | [16] 13.1 µM | [17] > 10 µM | [18] 11.6 µM

COc1c2c(cc3nc4ccccc4nc13)CCC(C(C)(C)O)C2 (configuration not stated)
inactive: [1] > 100 µM | [2] > 100 µM | [3] > 100 µM | [4] 26.4 µM | [5] > 100 µM | [6] > 100 µM | [7] > 100 µM | [8] 65.6 µM | [9] > 100 µM | [10] > 100 µM | [11] > 100 µM | [12] > 100 µM | [13] > 100 µM | [14] > 100 µM | [15] > 100 µM | [16] > 100 µM | [17] > 100 µM | [18] > 100 µM

CC(C)=CC(C(O)c1ccccc1)S(=O)(=O)c1nccn1C (configuration not stated)
inactive: [1] > 100 µM | [2] > 100 µM | [3] > 100 µM | [4] > 100 µM | [5] > 100 µM | [6] > 100 µM | [7] > 100 µM | [8] > 100 µM | [9] > 100 µM | [10] > 100 µM | [11] > 100 µM | [12] > 100 µM | [13] > 100 µM | [14] > 100 µM | [15] > 100 µM | [16] > 100 µM | [17] > 100 µM | [18] > 100 µM

COc1ccc(/C=C2/CCCC/C2=N/O)cc1
inactive: [1] > 100 µM | [2] 88.9 µM | [3] > 100 µM | [4] > 100 µM | [5] > 100 µM | [6] 29.6 µM | [7] > 100 µM | [8] > 100 µM | [9] > 100 µM | [10] 69.5 µM | [11] > 100 µM | [12] 57.9 µM | [13] > 100 µM | [14] > 100 µM | [15] > 100 µM | [16] > 100 µM | [17] > 100 µM | [18] > 100 µM

COc1ccc(/C=c2\sc3n(c2=O)C(N)=C(C#N)C(c2ccc(OC)cc2)C=3c2nc3ccccc3[nH]2)cc1 (configuration not stated)
inactive: [1] 33.7 µM | [2] 34.4 µM | [3] 22.6 µM | [4] 41.2 µM | [5] 38.7 µM | [6] 18 µM | [7] 77.1 µM | [8] 22.6 µM | [9] 18.6 µM | [10] > 100 µM | [11] 27.4 µM | [12] 42.1 µM | [14] 18.5 µM | [15] 28.6 µM | [16] 27.7 µM | [17] 16.1 µM | [18] 79.4 µM

Cc1nn(C)cc1P(=S)(c1ccccc1)c1ccccc1
inactive: [1] 55 µM | [2] 61.7 µM | [3] > 100 µM | [4] 18.6 µM | [5] 70.3 µM | [6] 30.3 µM | [7] 71.6 µM | [8] 58.6 µM | [9] 40.5 µM | [10] > 100 µM | [11] > 100 µM | [12] 81.8 µM | [13] 67.5 µM | [14] > 100 µM | [15] > 100 µM | [16] 51.9 µM | [17] > 100 µM | [18] 47 µM

CCOC(=O)C(=O)Nc1ccc(Cl)c(C(F)(F)F)c1
inactive: [1] > 100 µM | [2] > 100 µM | [3] > 100 µM | [4] > 100 µM | [5] > 100 µM | [6] > 100 µM | [7] > 100 µM | [8] > 100 µM | [10] > 100 µM | [11] > 100 µM | [12] > 100 µM | [13] > 100 µM | [14] > 100 µM | [15] > 100 µM | [16] > 100 µM | [17] > 100 µM | [18] > 100 µM
